Data: publication PMC8064491, “Design and Synthesis of Novel Symmetric Fluorene-2,7-Diamine Derivatives as Potent Hepatitis C Virus Inhibitors” (Pharmaceuticals, 2021)
Read-outs that look alike come from different tables or passages of the source.

What was measured:
[1] = test system: HCV subgenomic reporter replicon of genotype 1b (strain Con1); assay: Anti-HCV 1b activity, luciferase reporter replicon assay in Huh5-2 cells; format: cell-based, Hepatitis C virus; details: for EC50: Hepatitis C virus
Protocol: (§1) The HCV RNA replication inhibitory effect of the novel compounds and their impact on cell viability was tested in the stable cell line Huh5-2 carrying an HCV subgenomic reporter replicon of genotype 1b (strain Con1). The viral replication level was measured in terms of the activity of the co-expressed firefly luciferase (F-Luc). Several concentrations of the tested compounds were prepared in a cell culture medium and were used to treat the cells for 72 h. The solvent DMSO was added as a control with a final concentration of 0.2% so as not to impact viral replication (data not shown). First, different compound concentrations of up to 100 μM were evaluated for their effect on cell viability; results are reported as the median cytotoxic concentration (CC50). Next, all compounds were screened for their anti-HCV activity at a concentration of 1 µM, and compounds showing ≥50% activity were further tested in several concentrations to calculate the median effective concentration (EC50) values (Table 1 and Table 2). The anti-HCV activity of the analogs 1–32 was estimated by quantifying luciferase activity resulting from viral replication. Cytotoxicity was determined by measuring the intracellular levels of ATP. The selectivity index (SI50) was calculated as the ratio of CC50 to EC50 and was calculated as an indication of the compounds’ safety. We used daclatasvir as a positive control.
(§2) The stable replicon cell line Huh5-2 (genotype 1b; Con1) (kindly provided by R. Bartenschlager, Heidelberg University, Germany) has been described previously. The stable cell lines Huh7.5-3a and Huh7.5-4a have been constructed with the subgenomic reporter replicons of HCV 3a (S52) S52-SG(Feo)(AII) and HCV 4a (ED43) ED43-SG(Feo)(VYG) (kindly provided by C.M. Rice, The Rockefeller University, NY). Cells were cultured in high glucose (25 mM) Dulbecco’s modified minimal essential medium (Invitrogen), supplemented with 2 mM L-glutamine, 0.1 mM non-essential amino acids, 100 U/mL penicillin, 100 µg/mL streptomycin, and 10% (v/v) fetal calf serum (referred to as complete DMEM). Complete DMEM was supplemented with G418 at 500 μg/mL for Huh5-2, 750 μg/mL for Huh7.5-3a, and 350 μg/mL for Huh7.5-4a.
(§3) Cells were treated with serial dilutions of the test compounds or the solvent DMSO for 72 h. Antiviral activity and cytotoxicity were determined by measuring virus-derived luciferase activity or intracellular ATP levels, respectively. The median effective concentration (EC50) of the compounds, reducing luciferase signal by 50%, and their median cytotoxic concentration (CC50), causing 50% cell death, were determined by nonlinear regression analysis using the Prism 6.0 software (GraphPad Software Inc.). Daclatasvir was kindly provided by Dr. Marc Windisch (Institut Pasteur Korea).
Firefly luciferase activity was measured using Luciferase Assay System (Promega), according to the manufacturer’s instructions. Measurements were performed with a GloMax 20/20 single tube luminometer (Promega) for 10 s. Values were normalized to total protein amounts as quantified by Bradford assay (Pierce).

[2] = Cytotoxicity by intracellular ATP levels; format: cell-based; details: human, Huh5-2 cells, read-out: HCV Replicon 1b CC50
Protocol: as §1, §3
ATP was measured using the ViaLight HS BioAssay kit (Lonza) according to the manufacturer’s protocol in a GloMax 20/20 single-tube luminometer (Promega) for 1 s. Values were normalized to total protein amounts.

[3] = test system: HCV subgenomic replicon of genotype 3a (strain S52); assay: Anti-HCV 3a activity, replicon assay in Huh7.5-3a cells; format: cell-based, Hepatitis C virus
Text: (§4) Compound 26, showing the highest activity on genotype 1b was further tested against HCV 3a and 4a replicons. The fact that genotype 4 is highly heterogeneous, of less response to DAAs, and the most prevalent genotype in Egypt, made this genotype of specific interest. Moreover, genotype 3 is the most difficult to treat genotype using DAAs, especially in patients with liver cirrhosis. Specifically, Huh7.5-3a and Huh7.5-4a stable cell lines having HCV subgenomic replicons of genotypes 3a (strain S52) and 4a (strain ED43), respectively, were treated with different concentrations of compound 26. […] Further structural optimization is required, and testing compound 26 in combination with other DAAs could improve the clinical outcome.
as §2
(§5) Cells were treated with serial dilutions of the test compounds or the solvent DMSO for 72 h. Antiviral activity and cytotoxicity were determined by measuring virus-derived luciferase activity or intracellular ATP levels, respectively. […]
(§6) Firefly luciferase activity was measured using Luciferase Assay System (Promega), according to the manufacturer’s instructions. […] Values were normalized to total protein amounts as quantified by Bradford assay (Pierce).

[4] = test system: HCV subgenomic replicon of genotype 4a (strain ED43); assay: Anti-HCV 4a activity, replicon assay in Huh7.5-4a cells; format: cell-based; details: Hepatitis C virus, read-out: EC50 GT 4a
Text: as §4
The stable replicon cell line Huh5-2 (genotype 1b; Con1) (kindly provided by R. Bartenschlager, Heidelberg University, Germany) has been described previously. […]
as §5, §6

[5] = test system: HCV genotype 1b replicon (Huh5-2 cells); assay: Drug-drug interaction with daclatasvir in Huh5-2 replicon cells (F-Luc activity); format: cell-based, Hepatitis C virus
Protocol: Next, we investigated the effect of compound 26 in the presence of daclatasvir (DCV) in Huh5-2 replicon cells. […] It is worth noting that NS5A is a very flexible protein and can attain different conformations (open conformer and closed conformer PDB ID: 1ZH1, 3FQM, respectively); thus, there is the potential for different binding modes of daclatasvir and our molecules, at the active center of the NS5A protein, leading to synergism.
The coefficient of Drug interactions (CDI) is calculated as follows: CDI = AB / (A × B), where AB is the ratio of the combination groups to the control group; A or B is the ratio of the single-agent group to the control group.
Figure 4 Synergistic anti-HCV activity of compound 26 with daclatasvir (DCV). Huh5-2 cells were treated with 30 pM or […] of DCV was used to in the presence or absence of the analog. F-Luc activity was quantified as relative light units (RLU) per μg of total protein. Values derived from cells treated with the solvent DMSO (control—C) were set to 100%. CDI: coefficient of drug interaction. Bars show mean values derived from three independent experiments in triplicate. Error bars denote standard deviation (SD). TEXT PRINTED IN THE PICTURE: 26 + DCV: CDI: 0,68 (DCV 15 pM - Comp. 26 25 pM); CDI: 0,70 (DCV 30 pM - Comp. 26 50 pM)

HCV 1b RNA = assay: Quantification of (+) strand HCV RNA by RT-qPCR in Huh5-2 cells; format: cell-based; details: Hepatitis C virus, Huh-5-2, normalized to YWHAZ
Protocol: The HCV RNA and NS5A protein levels were determined in cells treated with compound 26 using reverse transcription-quantitative polymerase chain reaction (RT-qPCR) or Western blot analysis, respectively (Figure 5A).
Total RNA was extracted from Huh5-2 cells with Nucleozol reagent (Macherey-Nagel), according to the manufacturer’s instructions, and used to perform reverse-transcription (RT) and quantitative real-time polymerase chain reaction (qPCR) for replicon RNA. RT was performed using Moloney Murine Leukemia Virus (MMLV) reverse transcriptase (Promega) and reverse primers specific for Con1 IRES (5’-[…]-3’) and the housekeeping gene YWHAZ (5’- […]-3’). For qPCR, primers specific for the Con1 IRES (forward: 5’-[…]-3’and reverse: 5’-[…]-3’) and KAPA SYBR FAST qPCR Master Mix (Kapa Biosystems) were used. YWHAZ mRNA was used as a normalization control (forward: 5’-[…]-3’ and reverse: 5’- […]-3’).
Figure 5 Anti-HCV activity of compound 26 at the level of viral RNA and protein. Different concentrations of compound 26, or the solvent DMSO (control—C), were used to treat Huh5-2 cells. (A) Quantification of (+) strand HCV RNA by RT-qPCR. Values are expressed as a percentage of those obtained from control cells. mRNA levels of the housekeeping gene 14-3-3-zeta polypeptide (YWHAZ) were used for normalization. (B) (Top) Western blot analysis for NS5A. β-actin was used as a loading control. […]

**Q.** What does the source list for CCOC(=O)N[C@@H](C(=O)N1CCC[C@H]1C(=O)Nc1ccc2c(c1)Cc1cc(NC(=O)[C@@H]3CCCN3C(=O)[C@H](NC(=O)OCC)c3ccccc3)ccc1-2)c1ccccc1 [Compound 26, Diethyl((1R,1’R)-((2S,2’S)-(((9H-fluorene-2,7-diyl)bis(azanediyl))bis(carbonyl))bis(pyrrolidine-2,1-diyl))bis(2-oxo-1-phenylethane-2,1-diyl))dicarbamate]?
**A.** fold more active than S counterparts ([1]; 25 vs 21, 26 vs 22, HCV 1b EC50 ratio): 200 fold; EC50 ([1]; Huh-5-2, 72 h, read-out: HCV Replicon 1b EC50): 0.036 nM; EC50 ([1]; Huh-5-2, read-out: EC50 against HCV genotype 1b): 0.04 nM; selectivity index relative to daclatasvir ([1]; SI50 ratio): four-fold better; CC50 at 72 h [2]: > 100000 nM; effect on GT 3a relative to daclatasvir ([3]; EC50 ratio): seven-fold higher; EC50 ([3]; Hepatitis C virus, read-out: EC50 GT 3a): 1.2 nM; EC50 [4]: 117 nM; CDI ([5]; DCV 15 pM - Comp. 26 25 pM): 0,68; CDI ([5]; DCV 30 pM - Comp. 26 50 pM): 0,70; coefficient of drug interaction (CDI) ([5]; compound 26 with daclatasvir, CDI <1 synergistic): ≈ 0.7; EC50 (HCV 1b RNA): 0.03 nM
